What was measured:
KIT = KIT (Homo sapiens, UniProt P10721); assay: Kinase active site-directed competition binding assay; settings: read-out: Percent Control at 10μM
KIT (D816V) = KIT (D816V) (Homo sapiens, UniProt P10721, D816V); assay: as above; settings: read-out: Percent Control at 10μM
hookworm tubulin = settings: cited from earlier work
mammalian tubulin = settings: fold less potency than on hookworm tubulin; cited from earlier work

Chain of KIT (D816V) (P10721 26-976 D816V): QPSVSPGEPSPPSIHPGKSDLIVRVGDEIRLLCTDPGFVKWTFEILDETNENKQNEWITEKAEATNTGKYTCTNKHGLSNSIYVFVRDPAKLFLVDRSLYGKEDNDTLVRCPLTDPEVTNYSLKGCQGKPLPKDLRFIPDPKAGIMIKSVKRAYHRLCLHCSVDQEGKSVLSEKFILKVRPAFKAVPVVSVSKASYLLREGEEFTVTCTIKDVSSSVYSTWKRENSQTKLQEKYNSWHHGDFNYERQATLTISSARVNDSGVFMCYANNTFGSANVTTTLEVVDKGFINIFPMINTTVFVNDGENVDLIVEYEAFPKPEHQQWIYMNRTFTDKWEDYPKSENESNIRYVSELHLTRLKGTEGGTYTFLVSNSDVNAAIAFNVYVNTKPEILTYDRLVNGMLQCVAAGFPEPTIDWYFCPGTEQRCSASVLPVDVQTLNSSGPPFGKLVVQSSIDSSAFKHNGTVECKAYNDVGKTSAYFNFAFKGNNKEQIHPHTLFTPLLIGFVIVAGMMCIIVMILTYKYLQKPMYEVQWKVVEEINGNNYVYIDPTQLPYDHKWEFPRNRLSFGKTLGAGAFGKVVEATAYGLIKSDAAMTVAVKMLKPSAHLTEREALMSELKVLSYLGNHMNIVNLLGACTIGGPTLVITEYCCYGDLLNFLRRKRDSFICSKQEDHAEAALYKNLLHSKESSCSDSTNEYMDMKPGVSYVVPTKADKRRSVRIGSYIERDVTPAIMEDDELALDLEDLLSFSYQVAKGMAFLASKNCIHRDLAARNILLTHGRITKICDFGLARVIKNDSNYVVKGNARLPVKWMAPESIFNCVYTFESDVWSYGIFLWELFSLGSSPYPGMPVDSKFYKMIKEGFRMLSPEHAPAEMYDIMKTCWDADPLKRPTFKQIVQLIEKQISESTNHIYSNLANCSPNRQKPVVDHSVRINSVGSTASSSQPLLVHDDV
Chain of KIT (P10721 26-976): as the sequence (P10721 26-976 D816V) above, with V791D counted along it

remaining binding at 10 µM (KIT): 7.4% | remaining binding at 10 µM (KIT (D816V)): 33%
SMILES: COC(=O)Nc1nc2ccc(C(=O)c3ccccc3)cc2[nH]1 [MBZ, mebendazole]
inhibition of hookworm tubulin (potency in words) (hookworm tubulin): potent nanomolar inhibition | potency on mammalian tubulin relative to hookworm tubulin (fold less) (mammalian tubulin): 1000 x

From PMC5848469 (Combinatorial chemistry & high throughput screening, 2015)
